Earlier results, collected in US20110300232A1, “EFFECTS OF NITRIC OXIDE (NO) AND iNOS ON EXPRESSION AND SIGNAL TRANSDUCTION IN CANCER AND ITS USE IN DRUG DISCOVERY AND CANCER THERAPY DESIGN” (priority 2010, published 2011).

How the values were obtained:
p53 = conditions: high levels of NO
HIF-α = conditions: for effect on HIF-α expression: NO donor exposure, FIG. 4A and 4B, MCF-7
[1] = not given; remark: listed apart in the source

| SMILES | half-life in the body | NO level that stimulates p53 activation, causing apoptosis (p53) | NO concentration required for HIF-α stabilization (HIF-α; low concentration of NO) | effect on HIF-α expression (HIF-α) | duration of NO level provided in media [1] |
| --- | --- | --- | --- | --- | --- |
| [N]=O [NO, Nitric oxide] | 1 to 5 s | more than 500 nm | 100-200 nm | – | – |
| NCCN(CCN)/[N+]([O-])=N/O [DETA/NO] | – | – | – | stabilizing the HIF-α expression | several hours |
| CCN(CC)/[N+]([O-])=N/[O-].[Na+] [DEA/NO] | – | – | – | did not regulate HIF-α expression | only an hour |
| NCCCNCCCCN(CCCN)/[N+]([O-])=N/O [Sper/NO] | – | – | – | stabilizing the HIF-α expression | several hours |
